Results: patent publication US20010032339A1, “Chaperone suppression of ataxin-1 aggregation and altered subcellular proteasome localization imply protein misfolding in SCA1” (priority 1998, published 2001)

Experiments:
Format in all cases: cell-based, human
[1] = test system: ataxin-1 [92Q] in HeLa cells; experiment: Immunoblot of steady-state levels of ataxin-1 in detergent soluble and insoluble fractions; conditions: HeLa cells expressing ataxin-1 [92Q], versus DMSO control
Description: The effect of β-lactone on the steady-state levels of ataxin-1 was assessed by immunoblot analysis (FIGS. 8A through 8D). HeLa cells expressing mutant ataxin-1 [92Q] were treated with either different concentrations of β-lactone or DMSO (dimethyl sulfoxide) control. Cells lysates were separated into detergent soluble and insoluble fractions and then immunoblotted with ataxin-1 antibody. […] Increasing the protein concentration per lane and extending the exposure time, a high molecular weight smear punctated by discrete bands is evident. […] Additionally, the higher molecular weight smear was never seen in the detergent soluble fraction.

[2] = test system: GFP-ataxin-1 [82Q] nuclear aggregates in HeLa cells; experiment: Effect of proteasome inhibitors on aggregation of GFP-ataxin-1 [82Q] in transfected HeLa cells; conditions: HeLa cells transfected with GFP-ataxin-1 [82Q]
From the text: Full length mutant ataxin-1 [82Q] readily aggregates in subnuclear structures when overexpressed in tissue culture cells and these aggregates alter the staining pattern of the 20S proteasome. […] The effect of proteasome inhibitors on the aggregation of GFP-ataxin-1 [82Q] in transfected HeLa cells was examined. The protease inhibitor clasto-Lactacystin β-lactone specifically prevents protein breakdown by the proteasome, without inhibiting lysosomal degradation. […] In contrast to the 71% of mock treated cells which had nuclear aggregates, 97% of the proteasome inhibitor treated cells were aggregate positive (FIGS. 7A through 7D). […] Therefore, proteasome inhibitor treatment led to an increase in both frequency and size of nuclear aggregates. This enhancement is most likely due to the increased nuclear concentration of misfolded proteins which are not being properly degraded.

[3] = test system: ataxin-1 [92Q] nuclear aggregates in HeLa cells; experiment: Ataxin-1 aggregate formation in HeLa cells cotransfected with ataxin-1 [92Q] and HDJ-2/HSDJ constructs
From the text: Full-length human HDJ-2/HSDJ and HDJ-2/HSDJ mutants Δ250 (deletion of aa 9-46) and Δ450 (deletion of aa9-107)^32 were subcloned in frame into the pFLAG-CMV-2vector (Kodak). The primers HDJ2-FOR (5′-[…]-3′) and HDJ2-REV (5′-[…]-3′) were used to PCR amplify the 5′ end of HDJ-2/HSDJ containing an inframe Not I site. The PCR product was cut with Notl and EcoRl and subcloned into pFLAG-CMV-2. This construct was digested with EcoRl and Xbal to insert the 3′ HDJ-2/HSDJ EcoRl/Xbal sequence. The constructs were confirmed by DNA sequence analysis.
Transient expression of ataxin-1 and HDJ-2/HSDJ in COS7 and HeLa cells was accomplished by transfection with Lipofectamine™ Reagent (Life technologies, Inc.) in 35 mm tissue culture plates containing sterile coverslips. Forty-eight hours after transfection, cells were fixed at 4° C. for 30 min in 4% formaldehyde in PEM (80 mM K-PIPES, pH 6.8, 5 mM EGTA pH 7.0, 2 mM MgCl2), quenched in 1 mg/ml NaBH4 in PEM, and permeabilized for 30 min in 0.5% Triton X-100 in PEM. The coverslips were blocked for 1 hour at room temperature (RT) in 5% non-fat dry milk (Bio-Rad) in 50 mM Tris-HCl pH 7.5, 150 mM NaCl, 0.05% Tween20 (TBS-T), then incubated for 60 min at RT with rabbit polyclonal antibodies (1:1000) recognizing ataxin-1 (11750VII)^44. […] Hsp70 was detected with mouse monoclonal anti-Hsp70 (1:500) (StressGen). Endogenous HDJ-2/HSDJ was detected with mouse monoclonal anti-HDJ-2/DNAJ (1:200) (Neomarkers). The 20S proteasome was visualized with rabbit polyclonal anti-20S proteasome^43 (1:500) and ataxin-1 colocalization was detected using mouse monoclonal anti-Xpress (1:1000) recognizing the Xpress epitope in pcDNA 3.1 (Invitrogen). […]
Duplicate slides were graded blindly in two independent trials. […] Frequency of aggregate formation was computed for two independent experiments and expressed as the mean±s.e.m. […]
The ability of HDJ-2/HSDJ to function as a molecular chaperone and moderate ataxin-1 aggregation in HeLa cells was tested. […] HDJ-2/HSDJ was overexpressed by transfection in HeLa cells and the cells analyzed for the staining pattern of ataxin-1. […]

Row | Compound | steady-state level of detergent soluble form of ataxin-1 [1] | steady-state level of detergent-insoluble form of ataxin-1 [1] | distribution of cells containing large aggregates compared to controls [2] | percentage of cells aggregate positive ([2]; mock treated 71%) | change in frequency of ataxin-1 aggregation versus vector control ([3]; HeLa cells cotransfected with ataxin-1, ANOVA F=24.5, p=0.0002) | distribution of ataxin-1 staining pattern (diffuse/micropunctate versus large aggregates) ([3]; HeLa cells cotransfected with ataxin-1, ANOVA F=36.4, p<0.001) | percentage of cells with nuclear aggregates (aggregate-positive) ([3]; HeLa cells cotransfected with ataxin-1 [92Q], vector control approximately 70%)
1 | CC(C)[C@H](O)[C@@]12NC(=O)[C@H](C)[C@@H]1OC2=O [β-lactone, clasto-Lactacystin β-lactone] | unchanged | marked accumulation | dramatically increased | 97% | – | – | –
2 | HDJ-2/HSDJ: full-length human DnaJ (Hsp40) homolog molecular chaperone, overexpressed by transfection (pFLAG-CMV-2) | – | – | – | – | significant decrease | more cells have diffuse/micropunctate nuclear staining pattern, than large nuclear aggregates | less than 40%
